Values of other authors, collected in patent EP2698169A1, “A contrast agent-binding polypeptide and use thereof” (Universität Duisburg-Essen, priority 2012, dated 2014).

Conditions: literature [26]; conventional small molecular contrast agents

Relaxivities | Structure (SMILES)
below 10 s^-1mM^-1 | O=C([O-])CN1CCN(CC(=O)[O-])CCN(CC(=O)O)CCN(CC(=O)[O-])CC1.[Gd+3] [DOTA-Gd^3+]
below 10 s^-1mM^-1 | CNC[C@H](O)[C@@H](O)[C@H](O)[C@H](O)CO.CNC[C@H](O)[C@@H](O)[C@H](O)[C@H](O)CO.O=C([O-])CN(CCN(CC(=O)[O-])CC(=O)O)CCN(CC(=O)[O-])CC(=O)O.[Gd+3] [DTPA-Gd^3+, gadopentetic acid]
